The source of these data is US7070928B2, “Evolving new molecular function” (President and Fellows of Harvard College, priority 2001, dated 2006).

In assay [1] the target is αvβ3 integrin receptor (Homo sapiens, UniProt P05106+P06756). Conditions: benchmark αvβ3 integrin antagonists; cited from earlier work.
Assay [2] has as its target Taq DNA polymerase (Thermus aquaticus, UniProt P19821). The assay can be described thus: acceptance of modified nucleotide triphosphates in PCR. Conditions: 30 PCR cycles, pUC19 template DNA, three natural deoxynucleotide triphosphates, gel electrophoresis (FIG. 51). It is filed as biochemical. From the text:
The ability of thermostable DNA polymerases suitable for PCR amplification to accept these modified nucleotide triphosphates containing metal-binding functionality. Non-natural nucleotide triphosphates were purified by ion exchange HPLC and added to PCR reactions containing Taq DNA polymerase, three natural deoxynucleotide triphosphates, pUC19 template DNA, and two DNA primers. Primers were chosen to generate PCR products ranging from 50 to 200 base pairs in length. Control PCR reactions contained the four natural deoxynucleotide triphosphates and no non-natural nucleotides. PCR reactions were analyzed by agarose or denaturing acrylamide gel electrophoresis. […] Previous findings on the acceptance of 7 by Taq DNA polymerase are in conflict, with-both non-acceptance (K. Sakthivel et al. Angew. Chem. Int. Ed. Engl. 1998, 37, 2872–2875) and acceptance (S. E. Lee et al. Nucleic Acids Res. 2001, 29, 1565–73) reported.

Taq DNA polymerase, sequence (P19821 whole entry): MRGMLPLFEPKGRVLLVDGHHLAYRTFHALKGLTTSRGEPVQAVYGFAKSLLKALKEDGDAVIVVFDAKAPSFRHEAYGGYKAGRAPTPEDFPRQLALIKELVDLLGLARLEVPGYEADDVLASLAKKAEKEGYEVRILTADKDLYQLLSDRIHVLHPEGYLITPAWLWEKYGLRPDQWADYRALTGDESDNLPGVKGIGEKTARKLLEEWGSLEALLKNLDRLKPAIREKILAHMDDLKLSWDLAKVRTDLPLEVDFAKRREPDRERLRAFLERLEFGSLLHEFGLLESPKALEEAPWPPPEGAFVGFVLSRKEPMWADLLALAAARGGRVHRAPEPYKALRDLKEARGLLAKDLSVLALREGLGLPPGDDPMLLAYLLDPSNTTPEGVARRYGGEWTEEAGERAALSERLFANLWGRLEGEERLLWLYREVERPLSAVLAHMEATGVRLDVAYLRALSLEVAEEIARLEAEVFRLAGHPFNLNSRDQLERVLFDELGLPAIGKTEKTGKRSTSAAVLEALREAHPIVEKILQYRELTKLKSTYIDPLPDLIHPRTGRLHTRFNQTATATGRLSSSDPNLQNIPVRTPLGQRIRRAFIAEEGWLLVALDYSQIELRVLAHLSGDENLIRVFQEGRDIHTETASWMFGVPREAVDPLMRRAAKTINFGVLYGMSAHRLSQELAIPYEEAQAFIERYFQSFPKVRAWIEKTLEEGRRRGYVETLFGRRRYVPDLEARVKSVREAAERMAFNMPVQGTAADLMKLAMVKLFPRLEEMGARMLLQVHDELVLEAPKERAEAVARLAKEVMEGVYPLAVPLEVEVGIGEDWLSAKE
αvβ3 integrin receptor, sequence (P06756 31-889 limits assumed): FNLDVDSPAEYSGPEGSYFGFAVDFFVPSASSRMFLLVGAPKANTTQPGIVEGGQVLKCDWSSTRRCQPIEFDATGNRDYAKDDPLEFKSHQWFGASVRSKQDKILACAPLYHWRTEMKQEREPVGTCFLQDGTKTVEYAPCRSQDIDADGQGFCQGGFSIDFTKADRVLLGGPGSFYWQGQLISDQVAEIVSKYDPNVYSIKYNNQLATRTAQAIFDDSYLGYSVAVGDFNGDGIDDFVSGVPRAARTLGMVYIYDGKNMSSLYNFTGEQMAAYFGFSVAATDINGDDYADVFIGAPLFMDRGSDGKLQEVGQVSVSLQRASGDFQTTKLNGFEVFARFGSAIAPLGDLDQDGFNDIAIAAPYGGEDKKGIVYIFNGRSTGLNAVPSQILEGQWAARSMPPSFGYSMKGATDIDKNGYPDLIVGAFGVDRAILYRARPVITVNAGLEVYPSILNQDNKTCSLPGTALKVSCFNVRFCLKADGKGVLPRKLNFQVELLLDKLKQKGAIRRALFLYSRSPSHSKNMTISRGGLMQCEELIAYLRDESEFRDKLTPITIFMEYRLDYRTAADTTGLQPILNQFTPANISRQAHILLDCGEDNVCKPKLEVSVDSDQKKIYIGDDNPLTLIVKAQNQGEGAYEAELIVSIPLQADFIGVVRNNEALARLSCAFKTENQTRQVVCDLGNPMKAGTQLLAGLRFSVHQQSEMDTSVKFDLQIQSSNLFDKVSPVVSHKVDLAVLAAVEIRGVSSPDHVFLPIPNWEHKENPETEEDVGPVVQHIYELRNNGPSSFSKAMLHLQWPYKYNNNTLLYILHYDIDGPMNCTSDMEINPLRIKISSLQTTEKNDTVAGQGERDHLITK
αvβ3 integrin receptor, sequence (P06756 891-1048 partner limits assumed): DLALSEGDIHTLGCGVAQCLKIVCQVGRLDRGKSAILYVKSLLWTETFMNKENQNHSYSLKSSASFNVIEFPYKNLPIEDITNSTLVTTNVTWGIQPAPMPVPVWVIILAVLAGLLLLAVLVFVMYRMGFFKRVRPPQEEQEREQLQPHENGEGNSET
αvβ3 integrin receptor, sequence (P05106 27-788): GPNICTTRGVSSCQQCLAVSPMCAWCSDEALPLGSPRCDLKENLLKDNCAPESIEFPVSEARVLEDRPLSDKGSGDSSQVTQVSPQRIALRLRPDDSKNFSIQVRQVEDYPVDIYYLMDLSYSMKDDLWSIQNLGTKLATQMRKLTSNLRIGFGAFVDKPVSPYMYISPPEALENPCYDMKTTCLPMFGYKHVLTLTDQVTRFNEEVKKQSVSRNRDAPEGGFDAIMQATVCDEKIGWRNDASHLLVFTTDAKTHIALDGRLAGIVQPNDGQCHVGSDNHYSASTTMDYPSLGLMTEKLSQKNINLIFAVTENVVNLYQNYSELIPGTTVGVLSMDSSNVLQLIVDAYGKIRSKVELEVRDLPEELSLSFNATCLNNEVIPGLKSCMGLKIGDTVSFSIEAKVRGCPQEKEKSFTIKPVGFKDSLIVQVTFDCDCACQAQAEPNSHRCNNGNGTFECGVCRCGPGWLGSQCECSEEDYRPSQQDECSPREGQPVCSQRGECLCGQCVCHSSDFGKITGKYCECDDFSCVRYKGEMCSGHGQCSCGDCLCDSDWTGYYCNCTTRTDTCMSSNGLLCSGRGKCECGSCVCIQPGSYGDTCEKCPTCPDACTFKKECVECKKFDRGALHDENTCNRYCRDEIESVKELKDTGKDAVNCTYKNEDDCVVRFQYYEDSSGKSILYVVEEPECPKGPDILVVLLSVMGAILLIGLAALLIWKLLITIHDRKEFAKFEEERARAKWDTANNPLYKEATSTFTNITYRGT

As for “GRGDSPK [linear peptide, benchmark αvβ3 integrin antagonist]”, the IC50 – broadly, the concentration that gives 50% inhibition – in assay [1] was 210 nM.
Turning to `O=C(NCC=Cc1cn(C2CC(O)C(COP(=O)(O)OP(=O)(O)OP(=O)(O)O)O2)c(=O)[nH]c1=O)C(F)(F)F` (centres unmarked) [triphosphate of 23], the “incorporation by Taq DNA polymerase” value in assay [2] is recorded as “not an efficient polymerase substrate”.
